# Laboratory results: US12077503B2, “Substituted cyclic amides and their use as herbicides” (FMC CORPORATION, priority 2015, dated 2024)
# Key:
# Type in all cases: in vivo
# [1] = test system: ivy-leaved morning glory (Ipomoea hederacea); assay: Test G Pre-Emergence Protocol; settings: Ipomoea, pre-emergence, 312 h, evaluated after 13 days
# Summary of the method: (§1)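 Scores are visual damage ratings from 0 (no damage) to 100 (total plant kill), taken 13 days after treatment. Compound was sprayed one day post-sowing at 15.625, 62.5 or 250 g/ha in 50:50 acetone/water with 0.5% Tween 20.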
# [2] = test system: giant foxtail (Setaria faberi); assay: Test G Pre-Emergence Protocol; settings: Setaria faberi, pre-emergence, 312 h, evaluated after 13 days
# Summary of the method: as §1
# [3] = test system: corn (Zea mays); assay: Test G Pre-Emergence Protocol; settings: Zea mays, pre-emergence, 312 h, evaluated after 13 days
# Summary of the method: as §1
# [4] = test system: redroot pigweed (Amaranthus retroflexus); assay: Test G Pre-Emergence Protocol; settings: Amaranthus retroflexus, pre-emergence, 312 h, evaluated after 13 days
# Summary of the method: as §1
# [5] = test system: velvetleaf (Abutilon theophrasti); assay: Test G Pre-Emergence Protocol; settings: Abutilon theophrasti, pre-emergence, 312 h, evaluated after 13 days
# Summary of the method: as §1
# [6] = test system: barnyardgrass (Echinochloa crus-galli); assay: Test G Pre-Emergence Protocol; settings: Echinochloa crus-galli, pre-emergence, 312 h, evaluated after 13 days
# Summary of the method: as §1
# [7] = test system: ivy-leaved morning glory (Ipomoea hederacea); assay: Test G Post-Emergence Protocol; settings: Ipomoea, post-emergence, 312 h, read-out: Morningglory, Ivy-leaved damage rating
# Summary of the method: (§2)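 Post-emergence herbicidal damage, scored visually 0–100 at 13 days. Application at 15.625, 62.5 or 250 g/ha onto 8-day-old plants grown under glasshouse control.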
# [8] = test system: giant foxtail (Setaria faberi); assay: Test G Post-Emergence Protocol; settings: Setaria faberi, post-emergence, 312 h, read-out: Foxtail, Giant damage rating
# Summary of the method: as §2
# [9] = test system: corn (Zea mays); assay: Test G Post-Emergence Protocol; settings: Zea mays, post-emergence, 312 h, read-out: Corn damage rating
# Summary of the method: as §2
# [10] = test system: redroot pigweed (Amaranthus retroflexus); assay: Test G Post-Emergence Protocol; settings: Amaranthus retroflexus, post-emergence, 312 h, read-out: Pigweed, Redroot damage rating
# Summary of the method: as §2
# [11] = test system: velvetleaf (Abutilon theophrasti); assay: Test G Post-Emergence Protocol; settings: Abutilon theophrasti, post-emergence, 312 h, read-out: Velvetleaf damage rating
# Summary of the method: as §2
# [12] = test system: barnyardgrass (Echinochloa crus-galli); assay: Test G Post-Emergence Protocol; settings: Echinochloa crus-galli, post-emergence, 312 h, read-out: Barnyardgrass damage rating
# Summary of the method: as §2
# [13] = 15.625 g ai/ha, evaluated after 13 days (100=total damage to plant; 0=no damage to plant)
# [14] = 62.5 g ai/ha, evaluated after 13 days, 100=total damage to plant, 0=no damage to plant
# [15] = 250 g ai/ha, evaluated after 13 days, 100=total damage to plant, 0=no damage to plant
structure (smiles),measurement,setting,value
CN1C[C@@H](c2ccc(C(F)(F)F)cc2)[C@H](C(=O)Nc2cncc(F)n2)C1=O (racemic) [Compound 1657],pest or weed control at 15.625 g/ha,"[1]; 15.625 g ai/ha, read-out: Morningglory, Ivy-leaved damage rating (100=total damage to plant; 0=no damage to plant)",0%
same,pest or weed control at 62.5 g/ha,"[1]; 62.5 g ai/ha, 100=total damage to plant, 0=no damage to plant, read-out: Morningglory, Ivy-leaved damage rating",0%
same,pest or weed control at 250 g/ha,"[1]; 250 g ai/ha, read-out: Morningglory, Ivy-leaved damage rating (100=total damage to plant; 0=no damage to plant)",0%
same,pest or weed control at 15.625 g/ha,"[2]; 15.625 g ai/ha, read-out: Foxtail, Giant damage rating (100=total damage to plant; 0=no damage to plant)",0%
same,pest or weed control at 62.5 g/ha,"[2]; 62.5 g ai/ha, 100=total damage to plant, 0=no damage to plant, read-out: Foxtail, Giant damage rating",60%
same,pest or weed control at 250 g/ha,"[2]; 250 g ai/ha, read-out: Foxtail, Giant damage rating (100=total damage to plant; 0=no damage to plant)",80%
same,plant injury at 15.625 g/ha,"[3]; 15.625 g ai/ha, read-out: Corn damage rating (100=total damage to plant; 0=no damage to plant)",0%
same,plant injury at 62.5 g/ha,"[3]; 62.5 g ai/ha, 100=total damage to plant, 0=no damage to plant, read-out: Corn damage rating",0%
same,plant injury at 250 g/ha,"[3]; 250 g ai/ha, read-out: Corn damage rating (100=total damage to plant; 0=no damage to plant)",0%
same,pest or weed control at 15.625 g/ha,"[4]; 15.625 g ai/ha, read-out: Pigweed, Redroot damage rating (100=total damage to plant; 0=no damage to plant)",0%
same,pest or weed control at 62.5 g/ha,"[4]; 62.5 g ai/ha, 100=total damage to plant, 0=no damage to plant, read-out: Pigweed, Redroot damage rating",20%
same,pest or weed control at 250 g/ha,"[4]; 250 g ai/ha, read-out: Pigweed, Redroot damage rating (100=total damage to plant; 0=no damage to plant)",50%
same,pest or weed control at 15.625 g/ha,"[5]; 15.625 g ai/ha, read-out: Velvetleaf damage rating (100=total damage to plant; 0=no damage to plant)",0%
same,pest or weed control at 62.5 g/ha,"[5]; 62.5 g ai/ha, 100=total damage to plant, 0=no damage to plant, read-out: Velvetleaf damage rating",0%
same,pest or weed control at 250 g/ha,"[5]; 250 g ai/ha, read-out: Velvetleaf damage rating (100=total damage to plant; 0=no damage to plant)",0%
same,pest or weed control at 15.625 g/ha,"[6]; 15.625 g ai/ha, read-out: Barnyardgrass damage rating (100=total damage to plant; 0=no damage to plant)",0%
same,pest or weed control at 62.5 g/ha,"[6]; 62.5 g ai/ha, 100=total damage to plant, 0=no damage to plant, read-out: Barnyardgrass damage rating",10%
same,pest or weed control at 250 g/ha,"[6]; 250 g ai/ha, read-out: Barnyardgrass damage rating (100=total damage to plant; 0=no damage to plant)",20%
same,pest or weed control at 15.625 g/ha,[7]; [13],0%
same,pest or weed control at 62.5 g/ha,[7]; [14],10%
same,pest or weed control at 250 g/ha,[7]; [15],30%
same,pest or weed control at 15.625 g/ha,[8]; [13],0%
same,pest or weed control at 62.5 g/ha,[8]; [14],40%
same,pest or weed control at 250 g/ha,[8]; [15],70%
same,plant injury at 15.625 g/ha,[9]; [13],0%
same,plant injury at 62.5 g/ha,[9]; [14],10%
same,plant injury at 250 g/ha,[9]; [15],20%
same,pest or weed control at 15.625 g/ha,[10]; [13],0%
same,pest or weed control at 62.5 g/ha,[10]; [14],40%
same,pest or weed control at 250 g/ha,[10]; [15],60%
same,pest or weed control at 15.625 g/ha,[11]; [13],0%
same,pest or weed control at 62.5 g/ha,[11]; [14],20%
same,pest or weed control at 250 g/ha,[11]; [15],20%
same,pest or weed control at 15.625 g/ha,[12]; [13],0%
same,pest or weed control at 62.5 g/ha,[12]; [14],10%
same,pest or weed control at 250 g/ha,[12]; [15],40%
